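Cultured in 96-well plates, cells were exposed to test compound for 48 hours across five concentrations. At the GI50, growth is halved.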 Activity calls are given as the source filed them. Cut-off read from the data, not from the text of the source: active = GI50 up to about 1.1 µM and inactive = higher.
Assays:
Assay in all cases: growth of human tumour cells (NCI), 48 h
A549 = system: A549
ACHN = system: ACHN
BT-549 = system: BT-549
CAKI-1 = system: CAKI-1
HCT-116 = system: HCT-116
HCT-15 = system: HCT-15
HOP-92 = system: HOP-92
Hs-578T = system: Hs-578T
K562 = system: K562
LOX IMVI = system: LOX IMVI
MDA-MB-231 = system: MDA-MB-231
MOLT-4 = system: MOLT-4
NCI/ADR-RES = system: NCI/ADR-RES
OVCAR-5 = system: OVCAR-5
PC-3 = system: PC-3
RPMI-8226 = system: RPMI-8226
SK-MEL-2 = system: SK-MEL-2
U-251 = system: U-251
UACC-257 = system: UACC-257
UO-31 = system: UO-31

SMILES | GI50 (A549) | GI50 (ACHN) | GI50 (BT-549) | GI50 (CAKI-1) | GI50 (HCT-116) | GI50 (HCT-15) | GI50 (HOP-92) | GI50 (Hs-578T) | GI50 (K562) | GI50 (LOX IMVI) | GI50 (MDA-MB-231) | GI50 (MOLT-4) | GI50 (NCI/ADR-RES) | GI50 (OVCAR-5) | GI50 (PC-3) | GI50 (RPMI-8226) | GI50 (SK-MEL-2) | GI50 (U-251) | GI50 (UACC-257) | GI50 (UO-31)
Oc1ccccc1CNCc1ccccc1O | > 100 µM (inactive) | > 100 µM (inactive) | > 100 µM (inactive) | > 100 µM (inactive) | > 100 µM (inactive) | > 100 µM | 99.5 µM (inactive) | 39 µM (inactive) | 39.6 µM (inactive) | 65.2 µM (inactive) | > 100 µM (inactive) | 88.5 µM (inactive) | > 100 µM (inactive) | > 100 µM (inactive) | > 100 µM (inactive) | 32.7 µM (inactive) | > 100 µM (inactive) | > 100 µM (inactive) | > 100 µM (inactive) | 90.2 µM (inactive)
CCSc1nc(N2CCCC2)s[s+]1.[O-][Cl+3]([O-])([O-])[O-] | 18.9 µM (inactive) | 54.3 µM (inactive) | 33 µM (inactive) | 43 µM (inactive) | 28.4 µM (inactive) | 27.4 µM | 64.7 µM (inactive) | 40.6 µM (inactive) | 1 µM (active) | 19.1 µM (inactive) | 44.6 µM (inactive) | 3.29 µM (inactive) | > 100 µM (inactive) | > 100 µM (inactive) | 31.7 µM (inactive) | 0.318 µM (active) | 60.7 µM (inactive) | 56.4 µM (inactive) | 36.9 µM (inactive) | 42.1 µM (inactive)
O=c1c2cc(S(=O)(=O)Nc3c(Cl)cccc3Cl)ccc2ncn1NS(=O)(=O)c1ccc2ccccc2c1 | > 62.5 µM (inactive) | > 62.5 µM (inactive) | 22.3 µM (inactive) | 25.9 µM (inactive) | 61.8 µM (inactive) | 39.6 µM | 19.6 µM (inactive) | 15.8 µM (inactive) | 16.6 µM (inactive) | 25.4 µM (inactive) | 42.4 µM (inactive) | 30.3 µM (inactive) | > 62.5 µM (inactive) | 12.6 µM (inactive) | 12.8 µM (inactive) | 28.8 µM (inactive) | 20 µM (inactive) | > 62.5 µM (inactive) | > 62.5 µM (inactive) | 10.9 µM (inactive)
COc1cc(/C=C2\C[C@H]3[C@@H]4CCC5=CC(=O)CC[C@]5(C)[C@H]4CC[C@]3(C)C2=O)cc(OC)c1OC | 4.15 µM (inactive) | 9.16 µM (inactive) | 3.29 µM (inactive) | 5.37 µM (inactive) | 3.85 µM (inactive) | 4.82 µM | 13.1 µM (inactive) | 17.8 µM (inactive) | 3.82 µM (inactive) | 7.94 µM (inactive) | 7.74 µM (inactive) | 2.13 µM (inactive) | 3.86 µM (inactive) | 33.1 µM (inactive) | 3.23 µM (inactive) | 2.38 µM (inactive) | 7.19 µM (inactive) | 11.7 µM (inactive) | 6.07 µM (inactive) | 2.72 µM (inactive)
CS(=O)(=O)Nc1ccc2c(c1)oc(=O)c1ccccc12 | > 100 µM (inactive) | > 100 µM (inactive) | > 100 µM (inactive) | > 100 µM (inactive) | > 100 µM (inactive) | > 100 µM | > 100 µM (inactive) | > 100 µM (inactive) | > 100 µM (inactive) | > 100 µM (inactive) | > 100 µM (inactive) | > 100 µM (inactive) | > 100 µM (inactive) | > 100 µM (inactive) | > 100 µM (inactive) | > 100 µM (inactive) | > 100 µM (inactive) | > 100 µM (inactive) | > 100 µM (inactive) | 38.5 µM (inactive)
CN1CCN(C2=C(Cl)C(=O)c3c(O)ccc(O)c3C2=O)CC1 | 2.16 µM (inactive) | 0.286 µM (active) | 0.486 µM (active) | 0.546 µM (active) | 0.234 µM (active) | 0.176 µM | 0.223 µM (active) | 2.41 µM (inactive) | 0.217 µM (active) | 0.635 µM (active) | 0.516 µM (active) | 0.13 µM (active) | 0.632 µM (active) | 1.58 µM (inactive) | 1.73 µM (inactive) | 1.44 µM (inactive) | 1.21 µM (inactive) | 1.72 µM (inactive) | 0.689 µM (active) | 0.646 µM (active)
